Measured values reported in US11987788B2, “Methods and compositions for changing the composition of the skin microbiome using complex mixtures of bacterial strains” (S-Biomedic NV, priority 2015, dated 2024).
≈ marks a conversion by molar mass, not a printed value. Like-named read-outs stand apart in the source and are kept apart here. No end group written: not given here.

Key:
[1] = test system: facial acne vulgaris; test: Pilot clinical study, lesion count and irritation evaluated by a dermatologist; format: in vivo, human
[2] = test system: Propionibacterium acnes (ATCC 11827); test: Minimum Inhibitory Concentration Assay; format: cell-based; settings: ATCC 11827 (A5), visible growth, duplicate
Procedure: (§1) The Minimum Inhibitory Concentration Assay assessed the in vitro antimicrobial potency of the test compound. […] 4 compounds were tested, which are commonly used in cosmetics or to treat acne for their effect on the growth of different P. acnes strains. The 4 tested compounds were glycolic acid, salicylic acid, lactic acid and hyaluronic acid. The first 3 are commonly used in products to treat acne, while the last one is a commonly used cosmetic compound. Any other compound can be tested the same way. The test substance was dissolved in water or DMSO (for salicylic acid) and 4 μl of the test substance was added to 196 μl of growth medium resulting in the highest tested compound concentration. Then this concentration was diluted by 2-fold serial titrations, for a total of 11 concentrations and the final vehicle concentration was 2 percent. Following incubation, the test plate was visually examined and each well was scored for growth or complete inhibition of growth; then the MIC was recorded. Each test substance was evaluated in duplicate. Vehicle-control and an active reference agent (clindamycin) were used as blank and positive controls, respectively. The following three strains were used to assess whether strain specific differences in the tolerance to these compounds could be observed: • Propionibacterium acnes (ATCC 11827)—A5 • Propionibacterium acnes (ATCC 29399) • Propionibacterium acnes (ATCC 6919)—A1 The final concentrations for each tested compound were: • 1. […] Lactic acid: 100% (13.4M): […]

[3] = test system: Propionibacterium acnes (ATCC 6919); test: Minimum Inhibitory Concentration Assay; format: cell-based; settings: ATCC 6919 (A1), visible growth, duplicate
Procedure: as §1

[4] = test system: Propionibacterium acnes (ATCC 29399); test: Minimum Inhibitory Concentration Assay; format: cell-based; settings: duplicate
Procedure: as §1

[5] = test system: acne; settings: McLane, 2001; cited from earlier work
[6] = test system: Seb E6/E7 sebocytes
[7] = test system: Seb E6/E7 sebocytes; test: Neutral lipid staining with HCS LipidTOX (lipid production); format: cell-based; settings: 72 h stimulation; whole-well 5× and individual-cell 20× analysis
Procedure: An image at 5× magnification was taken from each well and then the relative fluorescence intensity quantified. Each condition was measured in triplicates. As a control, the cells were either unstimulated (blank) or stimulated with cis-9, cis-12 linoleic acid (not shown).
As a negative control, a non-stimulated blank was used and as positive control, the cells were stimulated for lipogenesis with cis-9, cis-12 linoleic acid.
Seb E6/E7 cells, which were seeded in 96-well plates and stimulated as described above were then analyzed for the induction lipid production. After 72 h of stimulation, the cells were stained with HCS LipidTOX deep red neutral lipid stain from Thermo Fisher (product no. H34477) according to the manufacturer's instructions. A final dilution of 1:450 of HCS LipidTOX dye in PBS was used for the staining. The amount of fluorescence was then evaluated using an inverted fluorescence microscope. In one approach, a complete well was imaged at 5× magnification and the total fluorescence in the image was quantified. A clear dose-dependent induction of lipid production was seen. […]
Alternatively, the fluorescent signal of individual cells, which were randomly selected from a higher magnification images, were quantified. 10 cells per image and 3 wells per condition were quantified. […]

[8] = test system: P. acnes; settings: Allgaier et al., 1985; cited from earlier work
[9] = Cutibacterium acnes, ATCC29399, visible growth

O=C(OOC(=O)c1ccccc1)c1ccccc1 [Benzoyl Peroxide, Benzoyl peroxide]
subjects with reduced lesions ([1]; end of week 1, of 10 subjects): 4 subjects
subjects improved (dermatologist evaluation, lesions) ([1]; week 1 (day 7), end of 7-day Benzoyl Peroxide phase, 10 subjects): 40%

O=C(O)CO [Glycolic acid, glycolic acid]
MIC ([2]; Cutibacterium acnes, ATCC11827): 18 mM (≈ 1370 µg/mL)
MIC ([3]; Cutibacterium acnes, ATCC6919): 18 mM (≈ 1370 µg/mL)
MIC [4, 9]: 60 mM (≈ 4560 µg/mL)

CC1=C(/C=C/C(C)=C/C=C/C(C)=C\C(=O)O)C(C)(C)CCC1 [Isotretinoin]
side effects [5]: causes skin irritation and also has teratogenic effects

CCCCC/C=C\C/C=C\CCCCCCCC(=O)O [cis-9, cis-12 linoleic acid]
cytotoxic effect (low XTT metabolic activity with high LDH activity) ([6]; 5 days exposure, different concentrations, triplicates): no significant effect
induction of lipogenesis (relative fluorescence of neutral lipids) [7]: induce lipogenesis

CC(O)C(=O)O (centres unmarked) [lactic acid]
MIC (inhibition of growth) [2]: 0.2%
MIC (inhibition of growth) [3]: 0.2%
MIC (inhibition of growth) ([4]; visible growth): 0.6%

O=C(O)c1ccccc1O [salicylic acid]
MIC ([2]; Cutibacterium acnes, ATCC11827): > 6 mM
MIC ([3]; Cutibacterium acnes, ATCC6919): > 6 mM
MIC [4, 9]: > 6 mM

CCCCC/C=C\C=C\CCCCCCCCC(=O)O [trans-10, cis 12 linoleic acid, trans-10, cis-12 linoleic acid]
cytotoxic effect (low XTT metabolic activity with high LDH activity) [6]: clear dose-dependent cytotoxic effect
induction of lipogenesis (relative fluorescence of neutral lipids) [7]: dose-dependent induction of lipogenesis

Epidermin: lantibiotic, antibiotic-like peptide naturally produced by S. epidermidis (IASKFICTPGCAKTGSFNSYCC; also: lantibiotic: lanthionine-type bridges, places not given here; UniProt P08136 31-52, looked up)
activity against P. acnes [8]: highly active

hyaluronic acid
MIC [2]: > 6e-05 mM
MIC [3]: > 6e-05 mM
MIC ([4]; visible growth): > 6e-05 mM
